The target in the assay is T1, C5aR (Homo sapiens, UniProt P21730).
T1 construct: U937 cells are a monocytic cell line which express C5aR; host or cells: U937 cells (cAMP treated) or isolated neutrophils
T1 sequence (P21730 1-350): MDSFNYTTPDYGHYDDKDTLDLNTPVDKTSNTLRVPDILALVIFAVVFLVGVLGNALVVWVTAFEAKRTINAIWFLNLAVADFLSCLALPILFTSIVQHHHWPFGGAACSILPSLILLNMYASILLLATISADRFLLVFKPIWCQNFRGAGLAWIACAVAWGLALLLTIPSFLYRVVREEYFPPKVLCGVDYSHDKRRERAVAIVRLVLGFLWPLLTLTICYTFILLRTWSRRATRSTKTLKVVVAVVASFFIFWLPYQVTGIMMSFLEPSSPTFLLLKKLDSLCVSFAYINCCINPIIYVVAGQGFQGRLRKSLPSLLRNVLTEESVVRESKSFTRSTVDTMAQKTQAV
Kind of assay: chemotaxis assay (C5aR mediated migration). Type of assay: cell-based. The conditions noted are these: migration of U937 or neutrophil cells toward C5a (0.03 nM), 1.5 hours at 37° C., read-out: Mig IC50. As for the experimental part: U937 cells are a monocytic cell line which express C5aR, and are available from ATCC (VA). […] Cells were grown under 5% CO2/95% air, 100% humidity at 37° C. and subcultured twice weekly at 1:6 (cells were cultured at a density range of 1×10^5 to 2×10^6 cells/mL) and harvested at 1×10^6 cells/mL. Prior to assay, cells are treated overnight with 0.5 mM of cyclic AMP (Sigma, Ohio) and washed once prior to use. cAMP treated U937 cells can be used in C5aR ligand binding and functional assays.
Optionally, human or murine neutrophils can be used to assay for compound activity. Neutrophils may be isolated from fresh human blood using density separation and centrifugation. Briefly, whole blood is incubated with equal parts 3% dextran and allowed to separate for 45 minutes. After separation, the top layer is layered on top of 15 mls of Ficoll (15 mls of Ficoll for every 30 mls of blood suspension) and centrifuged for 30 minutes at 400×g with no brake. The pellet at the bottom of the tube is then isolated and resuspended into PharmLyse RBC Lysis Buffer (BD Biosciences, San Jose, Calif.) after which the sample is again centrifuged for 10 minutes at 400×g with brake. The remaining cell pellet is resuspended as appropriate and consists of isolated neutrophils.
Optionally, compounds may be further assayed for their ability to inhibit chemotaxis in cells. Chemotaxis assays are performed using 5 μm pore polycarbonate, polyvinylpyrrolidone-coated filters in 96-well chemotaxis chambers (Neuroprobe; Gaithersburg, Md.) using chemotaxis buffer (Hank's balanced salt solution (HBSS) and 1% FBS). C5aR ligands (i.e., C5a, R&D Systems; Minneapolis, Minn.) are use to evaluate compound mediated inhibition of C5aR mediated migration. Other chemokines (i.e., SDF-1α; R&D Systems; Minneapolis, Minn.) are used as specificity controls. […] The chambers are incubated 1.5 hours at 37° C., and the number of cells in the lower chamber quantified either by direct cell counts in five high powered fields per well or by the CyQuant assay (Molecular Probes), a fluorescent dye method that measures nucleic acid content and microscopic observation.
Broadly, the IC50 is the concentration that inhibits the measured activity by half. For `Cc1cccc(C)c1-n1nc2c(c1-c1ncc(Cl)c3[nH]ccc13)CN(c1ncc(C3CC3)cn1)CC2` [Example 1.001], the IC50 is 0.005 to 0.05 µM.

For `COc1c(F)cc(-c2c3c(nn2-c2c(C)cccc2F)CCN(c2ncc(C(F)(F)F)cn2)C3)c2cc[nH]c12` [Example 1.002], the IC50 is 0.005 to 0.05 µM.

For `COc1c(F)cc(-c2c3c(nn2-c2c(C)cccc2C)CCN(c2ncc(C4CC4)cn2)C3)c2cc[nH]c12` [Example 1.003], the IC50 is under 0.005 µM.

Turning to `COc1c(F)cc(-c2c3c(nn2-c2c(C)cccc2C)CCN(c2ncc(C(F)(F)F)cn2)C3)c2cc[nH]c12` [Example 1.004], the IC50 is 0.005 to 0.05 µM.

On to `CCc1cccc(CC)c1-n1nc2c(c1-c1nccc3[nH]cc(Cl)c13)CN(c1ncc(C(F)(F)F)cn1)CC2` [Example 1.005], for which the 50% inhibitory concentration (IC50) is under 0.005 µM.

With `COc1cccc(C)c1-n1nc2c(c1-c1ccc3[nH]ccc3c1)CN(c1cc(C(C)(C)C)ccc1C)CC2` [Example 1.006], the IC50 is 0.005 to 0.05 µM.

In the case of `COc1cccc(F)c1-n1nc2c(c1-c1cc(F)c(OC)c3[nH]ccc13)CN(c1ncc(C(F)(F)F)cn1)CC2` [Example 1.007], the IC50 was 0.05 to 0.5 µM.

On to `CCc1cccc(CC)c1-n1nc2c(c1-c1ncc(Cl)c3[nH]ccc13)CN(c1ncc(C(F)(F)F)cn1)CC2` [Example 1.008], for which the IC50 was under 0.005 µM.

On to `CCc1cccc(CC)c1-n1nc2c(c1-c1ccc3[nH]cnc3c1Cl)CN(c1ncc(C(F)(F)F)cn1)CC2` [Example 1.009], for which the IC50 lay in the range of 0.05 to 0.5 µM.

Consider `CCc1cccc(CC)c1-n1nc2c(c1-c1ccc3[nH]ccc3n1)CN(c1ncc(C(F)(F)F)cn1)CC2` [Example 1.010], for which the IC50 was over 0.5 µM.

Consider `CCc1cccc(CC)c1-n1nc2c(c1-c1cnc3[nH]ccc3c1)CN(c1ncc(C(F)(F)F)cn1)CC2` [Example 1.011], for which the IC50 was over 0.5 µM.

Consider `CCc1cccc(CC)c1-n1nc2c(c1-c1cc3cc[nH]c3cn1)CN(c1ncc(C(F)(F)F)cn1)CC2` [Example 1.012], for which the IC50 lay within 0.05 to 0.5 µM.

For the compound `CCc1cccc(CC)c1-n1nc2c(c1-c1ncc(OC)c3[nH]ccc13)CN(c1ncc(C(F)(F)F)cn1)CC2` [Example 1.013], the IC50 fell in the range of 0.005 to 0.05 µM.

`CCc1cccc(CC)c1-n1nc2c(c1-c1c(F)cnc3[nH]ccc13)CN(c1ncc(C(F)(F)F)cn1)CC2` [Example 1.014]: the IC50 was 0.005 to 0.05 µM.

For `CCc1cccc(CC)c1-n1nc2c(c1-c1nccc3[nH]ncc13)CN(c1ncc(C(F)(F)F)cn1)CC2` [Example 1.015], the 50% inhibitory concentration (IC50) is 0.005 to 0.05 µM.

`CCc1cccc(CC)c1-n1nc2c(c1-c1ccc3[nH]c(C)nc3c1)CN(c1ncc(C(F)(F)F)cn1)CC2` [Example 1.016]: the IC50 was over 0.5 µM.

`CCc1cccc(CC)c1-n1nc2c(c1-c1ccc3[nH]cnc3c1)CN(c1ncc(C(F)(F)F)cn1)CC2` [Example 1.017]: the IC50 was over 0.5 µM.

On to `Cc1cccc(OCC(C)C)c1-n1nc2c(c1-c1ccc3[nH]ccc3c1)CN(C(=O)OC(C)(C)C)CC2` [Example 1.018], for which the half-maximal inhibitory concentration (IC50) lay in the range of 0.005 to 0.05 µM.

For `CCc1cccc(CC)c1-n1nc2c(c1-c1cc(F)c(OC)c3[nH]c(F)nc13)CN(c1ncc(C(F)(F)F)cn1)CC2` [Example 1.019], the 50% inhibitory concentration (IC50) fell in the range of 0.005 to 0.05 µM.

`CCc1cccc(CC)c1-n1nc2c(c1-c1ncc(C)c3[nH]ccc13)CN(c1ncc(C(F)(F)F)cn1)CC2` [Example 1.020]: the IC50 is under 0.005 µM.

As for `CCc1cccc(CC)c1-n1nc2c(c1-c1cc(F)c(OC)c3[nH]c(Cl)nc13)CN(c1ncc(C(F)(F)F)cn1)CC2` [Example 1.021], the IC50 was in the range of 0.05 to 0.5 µM.

Consider `CCc1cccc(CC)c1-n1nc2c(c1-c1cncc3[nH]ccc13)CN(c1ncc(C(F)(F)F)cn1)CC2` [Example 1.022], for which the IC50 is 0.05 to 0.5 µM.

Take `CCc1cccc(CC)c1-n1nc2c(c1-c1cc(F)c(OC)c3[nH]cc(F)c13)CN(c1ncc(C(F)(F)F)cn1)CC2` [Example 1.023]: the concentration for half-maximal inhibition (IC50) is under 0.005 µM.

With `CCOc1c(F)cc(-c2c3c(nn2-c2c(CC)cccc2CC)CCN(c2ncc(C(F)(F)F)cn2)C3)c2cc[nH]c12` [Example 1.024], the IC50 was under 0.005 µM.
